Source: patent publication US5827737A, “In vitro activation of cytotoxic T cells” (The Scripps Research Institute, priority 1996, dated 1998)
Where no end group is shown, it is not given here.

B1: ovalbumin protein: ovalbumin (Sigma Chem. Co.) osmotically loaded into the cells (protein, UniProt P01012 2-386, looked up)
Ovalbumin: GSIGAASMEFCFDVFKELKVHHANENIFYCPIAIMSALAMVYLGAKDSTRTQINKVVRFDKLPGFGDSIEAQCGTSVNVHSSLRDILNQITKPNDVYSFSLASRLYAEERYPILPEYLQCVKELYRGGLEPINFQTAADQARELINSWVESQTNGIIRNVLQPSSVDSQTAMVLVNAIVFKGLWEKAFKDEDTQAMPFRVTEQESKPVQMMYQIGLFRVASMASEKMKILELPFASGTMSMLVLLPDEVSGLEQLESIINFEKLTEWTSSNVMEERKIKVYLPRMKMEEKYNLTSVLMAMGITDVFSSSANLSGISSAESLKISQAVHAAHAEINEAGREVVGSAEAGVDAASVSEEFRADHPFLFCIKHIATNAVLFFGRCVSP

System: B3/CD8 T cell hybridoma
Assay: Antigen presentation assay: IL-2 production by B3/CD8 measured with CTLL ^3 H thymidine incorporation
Conditions: peptide added to the culture medium, or protein osmotically loaded

In the case of B1, the “T cell recognition of K^b -expressing Drosophila cells (IL-2 production)” value is reported as “no recognition occurred”.

Molecular target: T1, K^b sol (Mus musculus, UniProt P01901)
T1 construct: K^b α1α2α3 domains (274 residues) and murine β2 microglobulin (99 residues); made in house; host or cells: Drosophila S2/M3 cells
T1 sequence (P01901 22-295): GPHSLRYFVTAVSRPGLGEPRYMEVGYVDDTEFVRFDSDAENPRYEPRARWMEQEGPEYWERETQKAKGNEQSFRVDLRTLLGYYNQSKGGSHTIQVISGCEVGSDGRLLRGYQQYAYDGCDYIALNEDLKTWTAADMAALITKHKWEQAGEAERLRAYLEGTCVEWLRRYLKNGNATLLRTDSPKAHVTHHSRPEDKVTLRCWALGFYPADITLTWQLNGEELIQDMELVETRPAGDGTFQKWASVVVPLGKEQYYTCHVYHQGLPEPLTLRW
T1 sequence (P01887 21-119 partner): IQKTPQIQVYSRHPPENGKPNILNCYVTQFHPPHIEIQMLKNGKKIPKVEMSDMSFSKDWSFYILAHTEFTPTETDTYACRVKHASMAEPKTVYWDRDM
Assay: biochemical
Assay type: binding, murine
Conditions: not given

Going from DLRGYVYQGL [VSV-10N] to GYVYQGL [VSV-7, GYVYQGL], the Kd falls from 390 nM to 53 nM (7.4-fold).

LRGYVYQGL [VSV-9N] and RGYVYQGLK [VSV-9C] are within 1.5-fold of each other in Kd: 7.3 nM for the first, 6.9 nM for the second.

RGYVYQGLKS [VSV-10C] showed a Kd of 21 nM.

Same assay, conditions: read-out: KD

First: CC[C@H](C)[C@H](NC(=O)[C@@H](NC(=O)[C@@H](N)CO)[C@@H](C)CC)C(=O)N[C@@H](CC(N)=O)C(=O)N[C@@H](Cc1ccccc1)C(=O)N[C@@H](CCC(=O)O)C(=O)N[C@@H](CCCCN)C(=O)N[C@@H](CC(C)C)C(=O)O [OVA-8, reference compound]
Second: LESIINFEKL [OVA-10N]
The Kd of the first is 68-fold lower: 4.1 nM for the first, 280 nM for the second.

SIINFEKLT [OVA-9C] and SIINFEKLTE [OVA-10C] are within 1.5-fold of each other in Kd: 11 nM for the first, 14 nM for the second.
